{
  "source": "patent US11512262B2",
  "about": "“Azaphenothiazines and azaphenoxazines as antioxidants” (University of Ottawa, priority 2017, dated 2022)",
  "data": [
    {"experiment": "hexadecane/PBD-BODIPY co-autoxidation, inhibition by antioxidant", "conditions": "hexadecane/PBD-BODIPY co-autoxidations at 70° C. in PhCl", "method": "FIG. 1 is a graph depicting co-autoxidation of 2.8M hexadecane and 10 μM PBD-BODIPY at 70° C. in PhCl, initiated by 87 mM tBu2O2, and inhibited by 0.6 μM 1, 2, or 9.\nTable 1. […] Relative to other antioxidants, autoxidation was inhibited poorly in the catalytic phase. Dye consumption prevented accurate determination of the stoichiometry.", "values": [
      {"smiles": "c1ccc2c(c1)Nc1ccncc1O2", "note": "[Compound 3, 3-Azaphenoxazine]", "Inhibition rate constant kinh": "(1.3 ± 0.2) × 10^5 M^−1s^−1", "Stoichiometry n": "183 ± 8"},
      {"smiles": "c1ccc2c(c1)Nc1ncccc1O2", "note": "[Compound 1, 1-Azaphenoxazine]", "Inhibition rate constant kinh": "(6.8 ± 0.2) × 10^5 M^−1s^−1", "Stoichiometry n": "50 ± 1"},
      {"smiles": "COc1ccc2c(n1)Sc1cccnc1N2", "note": "[Compound 9, 3-Methoxy-4,9-Diazaphenothiazine]", "Inhibition rate constant kinh": "(5.6 ± 0.3) × 10^5 M^−1s^−1", "Stoichiometry n": "15 ± 2"},
      {"smiles": "CCCCCCCc1nc(C)c2c(n1)Nc1ccccc1S2", "note": "[Compound 6, 2-Heptyl-4-methyl-1,3-Diazaphenothiazine]", "Inhibition rate constant kinh": "(3.3 ± 0.2) × 10^5 M^−1s^−1", "Turnover in the catalytic phase (footnote a to n)": "Inefficient turnover"},
      {"smiles": "CCN(CC)c1ncc2c(n1)Nc1ccccc1S2", "note": "[Compound 10, 2-Diethylamino-1,3-Diazaphenothiazine]", "Inhibition rate constant kinh": "(2.4 ± 0.4) × 10^6 M^−1s^−1", "Stoichiometry n": "11 ± 0.7"},
      {"smiles": "c1ccc2c(c1)Nc1ccncc1S2", "note": "[Compound 4, 3-Azaphenothiazine]", "Inhibition rate constant kinh": "(5.9 ± 0.5) × 10^5 M^−1s^−1", "Stoichiometry n": "46 ± 3"},
      {"smiles": "c1ccc2c(c1)Nc1ncccc1S2", "note": "[Compound 2, 1-Azaphenothiazine]", "Inhibition rate constant kinh": "(2.8 ± 0.1) × 10^5 M^−1s^−1", "Stoichiometry n": "10 ± 2"},
      {"smiles": "CCCCCCCc1nc(C)c2c(n1)Nc1ccccc1O2", "note": "[Compound 5, 2-Heptyl-4-methyl-1,3-Diazaphenoxazine]", "Inhibition rate constant kinh": "(9.0 ± 0.3) × 10^5 M^−1s^−1", "Stoichiometry n": "109 ± 4"},
      {"smiles": "CCN(CC)c1ncc2c(n1)Nc1ccccc1S2", "note": "[Compound 7, 2-Diethylamino-1,3-Diazaphenothiazine]", "Inhibition rate constant kinh": "(2.0 ± 0.1) × 10^5 M^−1s^−1", "Stoichiometry n": "4 ± 0.4"},
      {"smiles": "c1ccc2c(c1)Nc1nc(N3CCCC3)ncc1S2", "note": "[Compound 8, 2-(Pyrrolidn-1-yl)-1,3-Diazaphenothiazine]", "Inhibition rate constant kinh": "(2.6 ± 0.1) × 10^5 M^−1s^−1", "Stoichiometry n": "6 ± 0.1"}
    ]}
  ]
}
